This note sets out measurements from paper PMC7186840, “Chemical‐Shift Perturbations Reflect Bile Acid Binding to Norovirus Coat Protein: Recognition Comes in Different Flavors” (Chembiochem, 2019).

For one test, the target named is T1, GI.1 Norwalk VLPs (Norovirus GI, UniProt A0A1S5QJB8).
T1 construct: virus-like particles of VP1, arginine tail present; donated by G. Hansman
As to the kind of experiment: STD NMR titration, single saturation time […] s. The format is binding. To be noted: read-out: K D app; pH 7.3, 277 K, 10 % D2O; apparent, ligand aggregation.

For test [1], the target named is T2, GII.4 Saga VLPs (Norovirus Hu/GII-4/Saga4/2006/JP, UniProt B5BTR7).
T2 construct: virus-like particles of VP1, arginine tail present; donated by G. Hansman
As to the kind of experiment: STD NMR titration, single saturation time […] s. The test is classed as binding.

In the next test the target is T3, GII.7 RKI VLPs (Norovirus Hu/GII.7/VLP 05G954/2005/DE, UniProt S5GGK6).
T3 construct: virus-like particles of VP1, arginine tail present; gift of S. Taube
As to the kind of experiment: STD NMR titration, single saturation time […] s. The test is classed as binding.

Test [2] concerns the target T4, GII.4 Saga P dimers (Norovirus Hu/GII-4/Saga4/2006/JP, UniProt B5BTR7).
T4 construct: isotope-labelled, non-deamidated
As to the kind of experiment: 1H, […] TROSY HSQC CSP titration. The format is binding.

The target in test [3] is T5, GII.17 Kawasaki308 P dimers (Norovirus Hu/GII/JP/2015/GII.P17_GII.17/Kawasaki308, UniProt A0A0E4B1P1).
T5 construct: gene VP1; MIL(ProS)V(ProS)A methyl-labelled
As to the kind of experiment: methyl TROSY CSP titration. The format is binding. The source says: methyl TROSY CSP titration on GII.17 Kawasaki308 P dimers

A further test addresses T6, GII.17 Kawasaki308 VLPs (Norovirus Hu/GII/JP/2015/GII.P17_GII.17/Kawasaki308, UniProt A0A0E4B1P1).
T6 construct: gene VP1; virus-like particles of VP1, arginine tail present; donated by G. Hansman
As to the kind of experiment: STD NMR titration, single saturation time […] s. The test is classed as binding.

A further test has as its target T7, GII.4 Ast6139 VLPs (Norwalk virus, UniProt Q70ET2).
T7 construct: virus-like particles of VP1, arginine tail present; donated by F. Parra
As to the kind of experiment: STD NMR titration, single saturation time […] s. The test is classed as binding.

Test [4] concerns the target T2, GII.4 Saga VLPs. As to the kind of experiment: biochemical. Details: STD NMR titration of norovirus VLPs with cholic acid; apparent KD from initial STD growth rates. On the procedure:
Samples containing VLPs were prepared at 0.41 to 1 mg mL^−1 VP1 concentration (6.9 to 17.7 μM binding sites) in PBS pH 7.3, 100 μM [D6]DSS, 0.02 % NaN3 and 10 % D2O. […] Bile acid stock solution were prepared as described above for backbone chemical shift perturbation experiments. For N373D Saga P dimers, one sample containing 45 μM P dimers, 100 μM [D6]DSS in 20 mM fully deuterated sodium phosphate buffer (pH 7.45) was prepared and titrated with CA up to a final concentration of 12 mM. with STD‐AFmax being the maximum STD‐AF for a given proton, k sat the saturation rate constant, and t sat the saturation time. Initial slopes STD‐AF0 were obtained from STD‐AF0=STD‐AFmax k sat, and were plotted as a function of the ligand concentration. Fitting Equation (1) to the resulting binding isotherms delivered dissociation constants K D. For curve fitting Origin2016G (OriginLab) was used. To compare P dimers to viral capsids, we also obtained STD NMR titration curves for CA binding to GII.4 Saga VLPs (Figure 3 D; Table 1, No. 5 and 6). In one set of experiments we performed titrations at single saturation times of 2 s15 (cf. Figure S5 and Table S1). Another titration experiment made use of initial STD growth rates16 determined from STD build up curves (Figure S6 and Table S2). The initial growth rates were also used to derive a binding epitope for CA (Figures 2 and S3). […]

A further test deals with T8, GII.10 Vietnam026 VLPs (Norwalk virus, UniProt Q5F4T5).
T8 construct: virus-like particles of VP1, arginine tail present; donated by G. Hansman
As to the kind of experiment: STD NMR titration, single saturation time […] s. The format is binding.

The target in a further test is T9, GII.4 MI001 P dimers (Norovirus Hu/GII.4/MI001/2011/USA, UniProt S5FWF8).
T9 construct: [U-2H,15N]-labelled
As to the kind of experiment: 1H, […] TROSY HSQC CSP titration. The test is classed as binding.

A further test concerns the target T10, GII.17 Saitama/T87 VLPs (Norovirus GII/Hu/JP/2002/GII.P16_GII.17/Saitama/T87, UniProt A0A076JB57).
T10 construct: gene VP1; virus-like particles of VP1, arginine tail present; donated by G. Hansman
Put plainly: biochemical. More on the design: STD NMR titration of norovirus VLPs with cholic acid, single saturation time 2 s; apparent KD from STD-AF. The method, then: Samples containing VLPs were prepared at 0.41 to 1 mg mL^−1 VP1 concentration (6.9 to 17.7 μM binding sites) in PBS pH 7.3, 100 μM [D6]DSS, 0.02 % NaN3 and 10 % D2O. […] Bile acid stock solution were prepared as described above for backbone chemical shift perturbation experiments. For N373D Saga P dimers, one sample containing 45 μM P dimers, 100 μM [D6]DSS in 20 mM fully deuterated sodium phosphate buffer (pH 7.45) was prepared and titrated with CA up to a final concentration of 12 mM. […] In one set of experiments we performed titrations at single saturation times of 2 s15 (cf. Figure S5 and Table S1). Another titration experiment made use of initial STD growth rates16 determined from STD build up curves (Figure S6 and Table S2). The initial growth rates were also used to derive a binding epitope for CA (Figures 2 and S3). The apparent K D values obtained are similar, with the value resulting from initial growth rates being slightly smaller, as expected.

Test [5] deals with T4, GII.4 Saga P dimers. As to the kind of experiment: 1H, […] TROSY HSQC CSP. The format is binding. To be noted: 2 mM ligand, pH 7.3, 298 K; same site as CA.
In test [6] the target is T2, GII.4 Saga VLPs. Put plainly: STD NMR. The test is classed as binding. To be noted: pH 7.3, 277 K.

As to `C[C@H](CCC(=O)O)[C@H]1CC[C@H]2[C@@H]3[C@H](O)C[C@@H]4C[C@H](O)CC[C@]4(C)[C@H]3C[C@H](O)[C@]12C` [CA, cholic acid], the Kd at GI.1 Norwalk VLPs turned out to be 12.2 ± 1.8 mM; at GII.4 Saga VLPs [1] it was 4.7 ± 0.4 mM; at GII.7 RKI VLPs, 10.9 ± 4.3 mM; at GII.4 Saga P dimers [2], 10 ± 0.6 mM; in test [3] it was 20.1 ± 2.9 mM; on GII.17 Kawasaki308 VLPs, 31.5 ± 2.8 mM. Further, the Kd at GII.4 Ast6139 VLPs is 26.5 ± 8 mM; at GII.4 Saga VLPs [4], 3.6 ± 0.7 mM; at GII.10 Vietnam026 VLPs it was 12.9 ± 2.9 mM; on GII.4 MI001 P dimers, 11.1 ± 0.9 mM; on GII.17 Saitama/T87 VLPs it was 6.6 ± 0.4 mM.

For the compound `C[C@H](CCC(=O)O)[C@H]1CC[C@H]2[C@@H]3[C@H](O)C[C@@H]4C[C@H](O)CC[C@]4(C)[C@H]3CC[C@]12C` [CDCA, chenodeoxycholic acid], the “1H,15N TROSY HSQC CSP” value at GII.4 Saga P dimers [5] is “Binding of DCA, GCDCA, and CDCA yields very similar CSPs reflecting binding to the same site”.

As to `C[C@H](CCC(=O)O)[C@H]1CC[C@H]2[C@@H]3CC[C@@H]4C[C@H](O)CC[C@]4(C)[C@H]3C[C@H](O)[C@]12C` [DCA, deoxycholic acid], at GII.4 Saga P dimers [5], the “1H,15N TROSY HSQC CSP” value was “Binding of DCA, GCDCA, and CDCA yields very similar CSPs reflecting binding to the same site”.

With `C[C@H](CCC(=O)NCC(=O)O)[C@H]1CC[C@H]2[C@@H]3[C@H](O)C[C@@H]4C[C@H](O)CC[C@]4(C)[C@H]3C[C@H](O)[C@]12C` [GCA, sodium glycocholate hydrate], the “STD NMR” value on GII.4 Saga VLPs [6] (1 mM ligand in presence of TCDCA (1 mM)) was “In each case STD NMR spectra indicate binding of bile acids to VLPs”.

On to `C[C@H](CCC(=O)NCC(=O)O)[C@H]1CC[C@H]2[C@@H]3[C@H](O)C[C@@H]4C[C@H](O)CC[C@]4(C)[C@H]3CC[C@]12C` [GCDCA, glycochenodeoxycholic acid], for which the Kd at GII.4 Saga P dimers [2] was found to be 1.5 ± 0.3 mM.

The compound `CC1(C)[C@@H](O[C@H]2O[C@H](C(=O)O)[C@@H](O)[C@H](O)[C@H]2O[C@@H]2O[C@H](C(=O)O)[C@@H](O)[C@H](O)[C@H]2O)CC[C@]2(C)[C@H]3C(=O)C=C4[C@@H]5C[C@@](C)(C(=O)O)CC[C@]5(C)CC[C@@]4(C)[C@]3(C)CC[C@@H]12` [GR, glycyrrhizic acid] showed a Kd at GII.4 Saga P dimers [2] of 13.8 ± 0.4 mM.

As for `C[C@H](CCC(=O)NCCS(=O)(=O)O)[C@H]1CC[C@H]2[C@@H]3[C@H](O)C[C@@H]4C[C@H](O)CC[C@]4(C)[C@H]3CC[C@]12C` [TCDCA, sodium taurochenodeoxycholate], at GII.4 Saga VLPs [6] (1 mM ligand in presence of GCA (1 mM)), the “STD NMR” value is “In each case STD NMR spectra indicate binding of bile acids to VLPs”.
